Laboratory results reported in ChEMBL document CHEMBL1131309, “Isoindol-1-one analogues of 4-(2'-methoxyphenyl)-1-[2'-[N-(2"-pyridyl)-p-iodobenzamido]ethyl]pipera zine (p-MPPI) as 5-HT1A receptor ligands” (J Med Chem, 1998).

How the values were obtained:
[1] = biological target: T1, 5-hydroxytryptamine receptor 1A (Rattus norvegicus, UniProt P19327)
T1 sequence (P19327 whole entry): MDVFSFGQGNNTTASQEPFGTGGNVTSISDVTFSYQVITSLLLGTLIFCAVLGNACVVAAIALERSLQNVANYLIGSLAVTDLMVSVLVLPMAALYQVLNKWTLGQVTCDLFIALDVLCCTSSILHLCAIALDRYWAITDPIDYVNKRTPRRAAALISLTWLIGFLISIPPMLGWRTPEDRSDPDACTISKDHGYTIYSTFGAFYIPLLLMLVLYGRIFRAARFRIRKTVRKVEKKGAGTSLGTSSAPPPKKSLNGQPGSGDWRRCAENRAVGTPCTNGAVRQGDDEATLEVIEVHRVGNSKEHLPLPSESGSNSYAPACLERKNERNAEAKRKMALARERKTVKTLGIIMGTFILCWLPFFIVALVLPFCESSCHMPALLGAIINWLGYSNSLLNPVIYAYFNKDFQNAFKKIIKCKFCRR
Description: (§1) In vitro binding affinity for 5-hydroxytryptamine 1A receptor in rat hippocampal membranes by [125I]-labeled agonist displacement.

[2] = test system: Rattus norvegicus; assay: Biodistribution was measured in rat striatum by injecting the radiolabeled compound intravenously and the value measured after 60 min; assay type: ADME, organism-based; details: in vivo, iv, 1 h
[3] = test system: Rattus norvegicus; assay: Biodistribution was measured in rat lung by injecting the radiolabeled compound intravenously and the value measured after 60 min; assay type: ADME, organism-based; details: in vivo, iv, 1 h
[4] = test system: Rattus norvegicus; assay: Biodistribution was measured in rat liver by injecting the radiolabeled compound intravenously and the value measured after 2 min; assay type: ADME, organism-based; details: in vivo, iv
[5] = test system: Rattus norvegicus; assay: Biodistribution was measured in rat thyroid by injecting the radiolabeled compound intravenously and the value measured after 2 min; assay type: ADME, organism-based, Thyroid gland; details: in vivo, iv
[6] = test system: Rattus norvegicus; assay: Biodistribution was measured in rat muscle by injecting the radiolabeled compound intravenously and the value measured after 30 min; assay type: ADME, organism-based, Muscle tissue; details: in vivo, iv, 0.5 h
[7] = test system: Rattus norvegicus; assay: Biodistribution was measured in rat cortex by injecting the radiolabeled compound intravenously and the value measured after 60 min; assay type: ADME, organism-based; details: in vivo, iv, 1 h
[8] = test system: Rattus norvegicus; assay: Biodistribution was measured in rat brain by injecting the radiolabeled compound intravenously and the value measured after 2 min; assay type: ADME, organism-based; details: in vivo, iv
[9] = test system: Rattus norvegicus; assay: Biodistribution was measured in rat muscle by injecting the radiolabeled compound intravenously and the value measured after 2 min; assay type: ADME, organism-based, Muscle tissue; details: in vivo, iv
[10] = test system: Rattus norvegicus; assay: Biodistribution was measured in rat kidney by injecting the radiolabeled compound intravenously and the value measured after 30 min; assay type: ADME, organism-based; details: in vivo, iv, 0.5 h
[11] = test system: Rattus norvegicus; assay: Biodistribution was measured in rat skin by injecting the radiolabeled compound intravenously and the value measured after 60 min; assay type: ADME, organism-based, Zone of skin; details: in vivo, iv, 1 h
[12] = test system: Rattus norvegicus; assay: Biodistribution was measured in rat thyroid by injecting the radiolabeled compound intravenously and the value measured after 60 min; assay type: ADME, organism-based, Thyroid gland; details: in vivo, iv, 1 h
[13] = biological target: T1, 5-hydroxytryptamine receptor 1A; remark: listed apart in the source
Description: as §1

[14] = test system: Rattus norvegicus; assay: Biodistribution was measured in blood of rat by injecting the radiolabeled compound intravenously and the value measured after 30 min; assay type: ADME, organism-based; details: in vivo, iv, 0.5 h
[15] = Biodistribution was measured in hippocampus region(HP/CB) by injecting the radiolabeled compound intravenously and the value measured after 60 min; assay type: ADME, organism-based; details: in vivo, iv, 1 h
[16] = test system: Rattus norvegicus; assay: Biodistribution was measured in rat skin by injecting the radiolabeled compound intravenously and the value measured after 30 min; assay type: ADME, organism-based, Zone of skin; details: in vivo, iv, 0.5 h
[17] = test system: Rattus norvegicus; assay: Biodistribution was measured in rat spleen by injecting the radiolabeled compound intravenously and the value measured after 2 min; assay type: ADME, organism-based; details: in vivo, iv
[18] = test system: Rattus norvegicus; assay: Biodistribution was measured in rat kidney by injecting the radiolabeled compound intravenously and the value measured after 60 min; assay type: ADME, organism-based; details: in vivo, iv, 1 h
[19] = test system: Rattus norvegicus; assay: Biodistribution was measured in rat cortex by injecting the radiolabeled compound intravenously and the value measured after 2 min; assay type: ADME, organism-based; details: in vivo, iv
[20] = test system: Rattus norvegicus; assay: Biodistribution was measured in rat cerebellum by injecting the radiolabeled compound intravenously and the value measured after 60 min; assay type: ADME, organism-based; details: in vivo, iv, 1 h
[21] = test system: Rattus norvegicus; assay: Biodistribution was measured in rat heart by injecting the radiolabeled compound intravenously and the value measured after 30 min; assay type: ADME, organism-based; details: in vivo, iv, 0.5 h
[22] = test system: Rattus norvegicus; assay: Biodistribution was measured in rat cerebellum by injecting the radiolabeled compound intravenously and the value measured after 2 min; assay type: ADME, organism-based; details: in vivo, iv
[23] = Biodistribution was measured in hippocampus region(HP/CB) by injecting the radiolabeled compound intravenously and the value measured after 2 min; assay type: ADME, organism-based; details: in vivo, iv
[24] = test system: Rattus norvegicus; assay: Biodistribution was measured in rat heart by injecting the radiolabeled compound intravenously and the value measured after 60 min; assay type: ADME, organism-based; details: in vivo, iv, 1 h
[25] = test system: Rattus norvegicus; assay: Biodistribution was measured in rat lung by injecting the radiolabeled compound intravenously and the value measured after 2 min; assay type: ADME, organism-based; details: in vivo, iv
[26] = test system: Rattus norvegicus; assay: Biodistribution was measured in rat hippocampus by injecting the radiolabeled compound intravenously and the value measured after 2 min; assay type: ADME, organism-based; details: in vivo, iv
[27] = test system: Rattus norvegicus; assay: Biodistribution was measured in rat spleen by injecting the radiolabeled compound intravenously and the value measured after 60 min; assay type: ADME, organism-based; details: in vivo, iv, 1 h
[28] = test system: Rattus norvegicus; assay: Biodistribution was measured in rat hippocampus by injecting the radiolabeled compound intravenously and the value measured after 30 min; assay type: ADME, organism-based; details: in vivo, iv, 0.5 h
[29] = test system: Rattus norvegicus; assay: Biodistribution was measured in rat thyroid by injecting the radiolabeled compound intravenously and the value measured after 30 min; assay type: ADME, organism-based, Thyroid gland; details: in vivo, iv, 0.5 h
[30] = test system: Rattus norvegicus; assay: Biodistribution was measured in rat muscle by injecting the radiolabeled compound intravenously and the value measured after 60 min; assay type: ADME, organism-based, Muscle tissue; details: in vivo, iv, 1 h
[31] = test system: Rattus norvegicus; assay: Biodistribution was measured in rat kidney by injecting the radiolabeled compound intravenously and the value measured after 2 min; assay type: ADME, organism-based; details: in vivo, iv
[32] = test system: Rattus norvegicus; assay: Biodistribution was measured in rat liver by injecting the radiolabeled compound intravenously and the value measured after 30 min; assay type: ADME, organism-based; details: in vivo, iv, 0.5 h
[33] = test system: Rattus norvegicus; assay: Biodistribution was measured in rat liver by injecting the radiolabeled compound intravenously and the value measured after 60 min; assay type: ADME, organism-based; details: in vivo, iv, 1 h
[34] = test system: Rattus norvegicus; assay: Biodistribution was measured in rat brain by injecting the radiolabeled compound intravenously and the value measured after 30 min; assay type: ADME, organism-based; details: in vivo, iv, 0.5 h
[35] = test system: Rattus norvegicus; assay: Biodistribution was measured in rat hippocampus by injecting the radiolabeled compound intravenously and the value measured after 60 min; assay type: ADME, organism-based; details: in vivo, iv, 1 h
[36] = test system: Rattus norvegicus; assay: Biodistribution was measured in rat cortex by injecting the radiolabeled compound intravenously and the value measured after 30 min; assay type: ADME, organism-based; details: in vivo, iv, 0.5 h
[37] = test system: Rattus norvegicus; assay: Biodistribution was measured in rat striatum by injecting the radiolabeled compound intravenously and the value measured after 30 min; assay type: ADME, organism-based; details: in vivo, iv, 0.5 h
[38] = test system: Rattus norvegicus; assay: Biodistribution was measured in rat cerebellum by injecting the radiolabeled compound intravenously and the value measured after 30 min; assay type: ADME, organism-based; details: in vivo, iv, 0.5 h
[39] = test system: Rattus norvegicus; assay: Biodistribution was measured in blood of rat by injecting the radiolabeled compound intravenously and the value measured after 2 min; assay type: ADME, organism-based; details: in vivo, iv
[40] = test system: Rattus norvegicus; assay: Biodistribution was measured in rat brain by injecting the radiolabeled compound intravenously and the value measured after 60 min; assay type: ADME, organism-based; details: in vivo, iv, 1 h
[41] = test system: Rattus norvegicus; assay: Biodistribution was measured in blood of rat by injecting the radiolabeled compound intravenously and the value measured after 60 min; assay type: ADME, organism-based; details: in vivo, iv, 1 h
[42] = Biodistribution was measured in hippocampus region(HP/CB) by injecting the radiolabeled compound intravenously and the value measured after 30 min; assay type: ADME, organism-based; details: in vivo, iv, 0.5 h
[43] = test system: Rattus norvegicus; assay: Biodistribution was measured in rat heart by injecting the radiolabeled compound intravenously and the value measured after 2 min; assay type: ADME, organism-based; details: in vivo, iv
[44] = test system: Rattus norvegicus; assay: Biodistribution was measured in rat striatum by injecting the radiolabeled compound intravenously and the value measured after 2 min; assay type: ADME, organism-based; details: in vivo, iv
[45] = test system: Rattus norvegicus; assay: Biodistribution was measured in rat spleen by injecting the radiolabeled compound intravenously and the value measured after 30 min; assay type: ADME, organism-based; details: in vivo, iv, 0.5 h
[46] = test system: Rattus norvegicus; assay: Biodistribution was measured in rat lung by injecting the radiolabeled compound intravenously and the value measured after 30 min; assay type: ADME, organism-based; details: in vivo, iv, 0.5 h

Structure (SMILES): COc1ccccc1N1CCN(CCn2c(=O)c3ccccc3c3ccccc32)CC1
- Ki [1]: 8.9 nM

Structure (SMILES): COc1ccccc1N1CCN(CCN2Cc3ccccc3C2=O)CC1
- Ki [1]: 14.9 nM

Structure (SMILES): COc1ccccc1N1CCN(CCN2C(=O)CCC2c2ccc(I)cc2)CC1 (stereo not drawn)
- Biodistribution [2]: 0.053 % dose organ-1
- Biodistribution [3]: 0.42 % dose organ-1
- Biodistribution [4]: 19.49 % dose organ-1
- Biodistribution [5]: 0.06 % dose organ-1
- Biodistribution [6]: 19.08 % dose organ-1
- Biodistribution [7]: 0.048 % dose organ-1
- Ki [1]: 2.54 nM
- Biodistribution [8]: 0.71 % dose organ-1
- Biodistribution [9]: 14.07 % dose organ-1
- Biodistribution [10]: 2.2 % dose organ-1
- Biodistribution [11]: 6.93 % dose organ-1
- Biodistribution [12]: 0.03 % dose organ-1
- Ki [13]: 2.54 nM
- Biodistribution [14]: 3.45 % dose organ-1
- Biodistribution [15]: 0.88 % dose organ-1
- Biodistribution [16]: 7.41 % dose organ-1
- Biodistribution [17]: 0.27 % dose organ-1
- Biodistribution [18]: 1 % dose organ-1
- Biodistribution [19]: 0.57 % dose organ-1
- Biodistribution [20]: 0.051 % dose organ-1
- Biodistribution [21]: 0.33 % dose organ-1
- Biodistribution [22]: 0.46 % dose organ-1
- Biodistribution [23]: 1.02 % dose organ-1
- Biodistribution [24]: 0.18 % dose organ-1
- Biodistribution [25]: 1.54 % dose organ-1
- Biodistribution [26]: 0.47 % dose organ-1
- Biodistribution [27]: 0.15 % dose organ-1
- Biodistribution [28]: 0.13 % dose organ-1
- Biodistribution [29]: 0.04 % dose organ-1
- Biodistribution [30]: 9.05 % dose organ-1
- Biodistribution [31]: 3.02 % dose organ-1
- Biodistribution [32]: 23.02 % dose organ-1
- Biodistribution [33]: 17.95 % dose organ-1
- Biodistribution [34]: 0.21 % dose organ-1
- Biodistribution [35]: 0.045 % dose organ-1
- Biodistribution [36]: 0.14 % dose organ-1
- Biodistribution [37]: 0.15 % dose organ-1
- Biodistribution [38]: 0.12 % dose organ-1
- Biodistribution [39]: 5.6 % dose organ-1
- Biodistribution [40]: 0.08 % dose organ-1
- Biodistribution [41]: 2.08 % dose organ-1
- Biodistribution [42]: 1.08 % dose organ-1
- Biodistribution [43]: 0.77 % dose organ-1
- Biodistribution [44]: 0.55 % dose organ-1
- Biodistribution [45]: 0.22 % dose organ-1
- Biodistribution [46]: 0.75 % dose organ-1
